Results on 13 compounds are retold here after US8193160B2 (priority 2006, dated 2012).

Converted amounts (≈) assume the structure as drawn. Where only a bound is given, the exact number is not on record here.

The subject of experiment [1] is Magnaporthe vegetative mycelia, wild type Guy11. Kind of experiment: microbe, parasite or virus in culture. In kind it is cell-based, Magnaporthe grisea. The conditions noted are these: for MIC: Pyricularia oryzae, read-out: Minimum Inhibitory Concentration (MIC), Guy11.
A further experiment deals with wild type conidia. Format: cell-based, Magnaporthe grisea.
For the next experiment, the system named is wild type appressoria. Format: cell-based, Magnaporthe grisea.
The next experiment deals with abc3Δ conidia. In kind it is cell-based, Magnaporthe grisea.
A further experiment relates to ABC3 promoter. In kind it is cell-based, Magnaporthe grisea.

Take `CCCCNC(=O)n1c(NC(=O)OC)nc2ccccc21` [Benomyl]: the MIC in experiment [1] amounted to 2 µg/mL (≈ 6.89 µM).
On to `C[C@H]1CCC/C=C/[C@@H]2C[C@H](O)C[C@H]2[C@H](O)/C=C/C(=O)O1` [Brefeldin A], for which the “Minimum Inhibitory Concentration (MIC), Guy11” value in experiment [1] is 40 µg/mL.
On to `OC(Cn1cncn1)(Cn1cncn1)c1ccc(F)cc1F` [Fluconazole], for which the MIC in experiment [1] worked out at 2500 µg/mL (≈ 8160 µM).
On the same count and under the same terms, as for `CCC(C)n1ncn(-c2ccc(N3CCN(c4ccc(OCC5COC(Cn6cncn6)(c6ccc(Cl)cc6Cl)O5)cc4)CC3)cc2)c1=O` (stereo not drawn) [Itraconazole], the figure is 2000 µg/mL (≈ 2830 µM).
In the case of `[Cl-].[K+]` [KCl, potassium chloride], the “reversal of defects associated with Valinomycin action” value in the experiment with wild type conidia is recorded as “failed to reverse”.
As for `CCC(=C/[C@H](C)C/C=C/C(C)=C/[C@@H](C)C(=O)[C@@H](C)[C@H](O)[C@@H](C)C/C(C)=C/C(=O)O)/C=C/[C@@H]1OC(=O)C=C[C@@H]1C` [Leptomycin B], the “Minimum Inhibitory Concentration (MIC), Guy11” value in experiment [1] was found to be 0.0075 µg/mL.
Turning to `CC1=CC(=O)c2ccccc2C1=O` [Menadione], in the experiment with wild type appressoria, the “effect on host penetration compared to treatment with peroxide” value is listed as “slightly reduced effect”.
Consider `CC(C)[C@@H]1NC(=O)[C@H](C)OC(=O)[C@@H](C(C)C)NC(=O)[C@@H](C(C)C)OC(=O)[C@H](C(C)C)NC(=O)[C@H](C)OC(=O)[C@@H](C(C)C)NC(=O)[C@@H](C(C)C)OC(=O)[C@H](C(C)C)NC(=O)[C@H](C)OC(=O)[C@@H](C(C)C)NC(=O)[C@@H](C(C)C)OC1=O` [Valinomycin], for which the MIC in experiment [1] was 20 µg/mL (≈ 18 µM). In the experiment on wild type conidia, the “frequency of appressoria formation” value stood at 61±2% and the germ tube growth result is recorded as “could withstand elevated concentration”. Moreover, in the experiment with abc3Δ conidia, the “effect on conidia (germ tube emergence)” value is listed as “complete blockage of conidial germ tube emergence” and the germ tube growth entry is reported as “inhibited”.
As for `COc1ccc(CCN(C)CCCC(C#N)(c2ccc(OC)c(OC)c2)C(C)C)cc1OC` (stereo not drawn) [Verapamil], in the experiment on wild type appressoria, the “decrease in penetration peg formation” value is given as no more than 74% and the “effect on germ tube emergence or growth” value is “without affecting”.
As to `OO` [hydrogen peroxide], in the experiment on wild type appressoria, the “appressoria able to breach the host surface” value is given as 36±2.8% and the “peroxide level that blocked germ tube emergence” value is reported as “exceeding 5 mM”. Further, the “ABC3 promoter driven destabilized-GFP fluorescence versus untreated control” value in the experiment on ABC3 promoter is “four fold higher”. For the same compound, the “growth under oxidative stress” value in the experiment on wild type Guy11 strain is recorded as “unaffected”.
For `C[n+]1ccc(-c2cc[n+](C)cc2)cc1` [paraquat], the “effect on host penetration compared to treatment with peroxide” value in the experiment with wild type appressoria is reported as “slightly reduced effect”.
Consider Actinomycin D, for which, in experiment [1], the “Minimum Inhibitory Concentration (MIC), Guy11” value is 15 µg/mL.
The same measure, in the same setting: next, Gramicidin D: 180 µg/mL.
